US6140368A, “Naphthols useful in antiviral methods” (The Regents of the University of California, priority 1998, dated 2000)
Like-named read-outs stand apart in the source and are kept apart here.

Key:
HIV integrase [1] = target: T1, HIV integrase (Human immunodeficiency virus type 1 group M subtype B, UniProt P04585); experiment: biochemical; conditions: read-out: Inhibition of 3' processing activity (IC50)
HIV integrase [2] = target: T1, HIV integrase; experiment: biochemical; conditions: read-out: Inhibition of strand transfer (IC50)
[3] = target: HIV reverse transcriptase (Human immunodeficiency virus type 1 group M subtype B, UniProt P03366); experiment: Reverse transcriptase scintillation proximity assay (Example 4, Table 2); assay type: biochemical; conditions: 10 μM inhibitor, relative to dimethyl sulfoxide = 100%; for remaining activity at 10 µM: 0.05 h, read-out: % RT activity remaining at 10 μM
Protocol: Reverse transcriptase ("RT") activity is measured using a scintillation proximity assay kit available from Amersham Life Sciences, Inc., which uses a biotin/streptavidin bead capture system. RNA-dependent polymerase activity is measured using purified […] and a synthetic 17mer/50mer RNA-DNA template-primer containing biotin at the 5' end of the DNA. The template-primer, buffer, dNTP, and inhibitor are incubated for 10 minutes at 37° C. before the RT is added. The final 100 μl reaction mixture contains: 39 nm of template primer, buffer (40 mM tris HCl at pH 8.0, 10 mM MgCl2, 60 mM KCl, 10 mM dithiothreitol); 75 nM of each dNTP except dTTP; 25 nM dTTP and 35 nM tritium labeled d*TTP; 10 μM inhibitor; and 1.0-2.0 μg of RT. After three minute incubation, the reaction is quenched with 40 μl of 0.56M EDTA. Then 10 μl of streptavidin SPA beads (in suspension) are added and incubated at 37° C. for 10 minutes. Finally, 850 μl of a buffer containing 10 mM Tris HCl pH 7.4 and 0.15M NaCl is added. The signal is produced by biotinylated polymers incorporating d*TTP binding to the streptavidin beads which stimulate the scintillant. The amount of d*TTP incorporated in the polymer is measured with a scintillation counter.
Compounds showing good inhibition will give a low number of counts/min (cpm). This number is related to a standard, dimethyl sulfoxide, which is given an arbitrary 100% relative activity. All cpm data in a single run are given a percent of this standard.

`O=C(O)CCc1ccc(N=Nc2c(S(=O)(=O)O)cc3cc(NC(=O)C(=O)Nc4ccc5c(O)c(N=Nc6ccc(CCC(=O)O)cc6)c(S(=O)(=O)O)cc5c4)ccc3c2O)cc1` [Compound 94] showed an IC50 (HIV integrase [1]) of 1000 nM and an IC50 (HIV integrase [2]) of 400 nM.

`COc1ccc(C(=O)O)c(N=Nc2c(S(=O)(=O)O)cc3cc(NC(=O)C(=O)Nc4ccc5c(O)c(N=Nc6c(C(=O)O)ccc(OC)c6OC)c(S(=O)(=O)O)cc5c4)ccc3c2O)c1OC` [Compound 101] was tested, and the IC50 (HIV integrase [1]) was 500 nM and the IC50 (HIV integrase [2]) was 2000 nM.

For `C=Cc1ccc(N=Nc2c(S(=O)(=O)O)cc3cc(NC(=O)Nc4ccc5c(O)c(N=Nc6ccc(C=C)cc6)c(S(=O)(=O)O)cc5c4)ccc3c2O)cc1` [Compound 74], the IC50 (HIV integrase [1]) was 2000 nM and the IC50 (HIV integrase [2]) was 1500 nM.

With `O=C(Nc1ccc2c(O)c(N=Nc3ccc(F)cc3)c(S(=O)(=O)O)cc2c1)Nc1ccc2c(O)c(N=Nc3ccc(F)cc3)c(S(=O)(=O)O)cc2c1` [Compound 69] the IC50 (HIV integrase [1]) was 700 nM and the IC50 (HIV integrase [2]) was 900 nM.

Compound `O=C(Nc1ccc2c(O)c(N=Nc3ccc(C(=O)O)cc3)c(S(=O)(=O)O)cc2c1)Nc1ccc2c(O)c(N=Nc3ccc(C(=O)O)cc3)c(S(=O)(=O)O)cc2c1` [Compound 67] has an IC50 (HIV integrase [1]) of 90 nM and an IC50 (HIV integrase [2]) of 250 nM.

In the case of `O=C(O)CCc1ccc(N=Nc2c(S(=O)(=O)O)cc3cc(NC(=O)Nc4ccc5c(O)c(N=Nc6ccc(CCC(=O)O)cc6)c(S(=O)(=O)O)cc5c4)ccc3c2O)cc1` [Compound 68], the IC50 (HIV integrase [1]) is reported as 400 nM and the IC50 (HIV integrase [2]) is reported as 400 nM.

`CC(=O)Nc1ccc(N=Nc2c(S(=O)(=O)O)cc3cc(NC(=O)C(=O)Nc4ccc5c(O)c(N=Nc6ccc(NC(C)=O)cc6)c(S(=O)(=O)O)cc5c4)ccc3c2O)cc1` [Compound 108] showed an IC50 (HIV integrase [1]) of 1000 nM and an IC50 (HIV integrase [2]) of 700 nM.

For `O=C(O)Cc1ccc(N=Nc2c(S(=O)(=O)O)cc3cc(NC(=O)C(=O)Nc4ccc5c(O)c(N=Nc6ccc(CC(=O)O)cc6)c(S(=O)(=O)O)cc5c4)ccc3c2O)cc1` [Compound 93], the IC50 (HIV integrase [1]) was 900 nM and the IC50 (HIV integrase [2]) was 500 nM.

In the case of `O=C(Nc1ccc2c(O)c(N=Nc3cccc(C(=O)O)c3)c(S(=O)(=O)O)cc2c1)C(=O)Nc1ccc2c(O)c(N=Nc3cccc(C(=O)O)c3)c(S(=O)(=O)O)cc2c1` [Compound 96], the IC50 (HIV integrase [1]) is reported as 500 nM and the IC50 (HIV integrase [2]) is reported as 400 nM.

`O=C(Nc1ccc2c(O)c(N=Nc3ncn[nH]3)c(S(=O)(=O)O)cc2c1)Nc1ccc2c(O)c(N=Nc3ncn[nH]3)c(S(=O)(=O)O)cc2c1` [Compound 65] was tested, and the IC50 (HIV integrase [1]) was 800 nM and the IC50 (HIV integrase [2]) was 500 nM.

`COc1cc(N=Nc2c(S(=O)(=O)O)cc3cc(NC(=O)C(=O)Nc4ccc5c(O)c(N=Nc6cc(OC)c(C(=O)O)cc6Cl)c(S(=O)(=O)O)cc5c4)ccc3c2O)c(Cl)cc1C(=O)O` [Compound 100] gave an IC50 (HIV integrase [1]) of 400 nM and an IC50 (HIV integrase [2]) of 700 nM.

Compound `O=C(Nc1ccc2c(O)c(N=Nc3ccccc3)c(S(=O)(=O)O)cc2c1)C(=O)Nc1ccc2c(O)c(N=Nc3ccccc3)c(S(=O)(=O)O)cc2c1` [Compound 106] has an IC50 (HIV integrase [1]) of 1500 nM and an IC50 (HIV integrase [2]) of 400 nM.

`O=C(Nc1ccc2c(O)c(N=Nc3ccccc3)c(S(=O)(=O)O)cc2c1)Nc1ccc2c(O)c(N=Nc3ccccc3)c(S(=O)(=O)O)cc2c1` [Compound 62] gave an IC50 (HIV integrase [1]) of 400 nM and an IC50 (HIV integrase [2]) of 500 nM.

For `O=C(O)CCCc1ccc(N=Nc2c(S(=O)(=O)O)cc3cc(NC(=O)C(=O)Nc4ccc5c(O)c(N=Nc6ccc(CCCC(=O)O)cc6)c(S(=O)(=O)O)cc5c4)ccc3c2O)cc1` [Compound 95], the IC50 (HIV integrase [1]) was 400 nM and the IC50 (HIV integrase [2]) was 700 nM.

With `O=C(Nc1ccc2c(O)c(N=Nc3ccc(I)cc3)c(S(=O)(=O)O)cc2c1)Nc1ccc2c(O)c(N=Nc3ccc(I)cc3)c(S(=O)(=O)O)cc2c1` [Compound 71] the IC50 (HIV integrase [1]) was 900 nM and the IC50 (HIV integrase [2]) was 1000 nM.

`O=C(O)CCC(NC(=O)c1ccc(N=Nc2c(S(=O)(=O)O)cc3cc(NC(=O)C(=O)Nc4ccc5c(O)c(N=Nc6ccc(C(=O)NC(CCC(=O)O)C(=O)O)cc6)c(S(=O)(=O)O)cc5c4)ccc3c2O)cc1)C(=O)O` (stereo not drawn) [Compound 107] was tested, and the IC50 (HIV integrase [1]) was 700 nM and the IC50 (HIV integrase [2]) was 500 nM.

Work on `O=C(Nc1ccc2c(O)c(N=Nc3cc(C(=O)O)ccc3C(=O)O)c(S(=O)(=O)O)cc2c1)C(=O)Nc1ccc2c(O)c(N=Nc3cc(C(=O)O)ccc3C(=O)O)c(S(=O)(=O)O)cc2c1` [Compound 104] yielded an IC50 (HIV integrase [1]) of 600 nM and an IC50 (HIV integrase [2]) of 400 nM.

`O=C(O)CC(C(=O)O)c1ccc(N=Nc2c(S(=O)(=O)O)cc3cc(NC(=O)C(=O)Nc4ccc5c(O)c(N=Nc6ccc(C(CC(=O)O)C(=O)O)cc6)c(S(=O)(=O)O)cc5c4)ccc3c2O)cc1` (stereo not drawn) [Compound 97] was tested, and the IC50 (HIV integrase [1]) was 500 nM and the IC50 (HIV integrase [2]) was 1000 nM.

Compound `COc1cc(N=Nc2c(S(=O)(=O)O)cc3cc(NC(=O)Nc4ccc5c(O)c(N=Nc6cc(OC)c(OC)c(OC)c6)c(S(=O)(=O)O)cc5c4)ccc3c2O)cc(OC)c1OC` [Compound 66] has an IC50 (HIV integrase [1]) of 800 nM and an IC50 (HIV integrase [2]) of 500 nM.

`O=C(Nc1ccc2c(O)c(N=Nc3ccc(Cl)cc3)c(S(=O)(=O)O)cc2c1)Nc1ccc2c(O)c(N=Nc3ccc(Cl)cc3)c(S(=O)(=O)O)cc2c1` [Compound 70] gave an IC50 (HIV integrase [1]) of over 3000 nM and an IC50 (HIV integrase [2]) of over 3000 nM.

For `O=C(O)/C=C/c1ccc(N=Nc2c(S(=O)(=O)O)cc3cc(NC(=O)c4cc(O)cc(C(=O)Nc5ccc6c(O)c(N=Nc7ccc(/C=C/C(=O)O)cc7)c(S(=O)(=O)O)cc6c5)n4)ccc3c2O)cc1` [Compound 151], the remaining activity at 10 µM [3] was 0.2%.

`COc1cc(N=Nc2c(S(=O)(=O)O)cc3cc(NC(=O)C(=O)Nc4ccc5c(O)c(N=Nc6cc(OC)c(OC)c(OC)c6)c(S(=O)(=O)O)cc5c4)ccc3c2O)cc(OC)c1OC` [Compound 110] gave an IC50 (HIV integrase [1]) of 1100 nM and an IC50 (HIV integrase [2]) of 400 nM.

With `O=C(O)CCc1ccc(N=Nc2c(S(=O)(=O)O)cc3cc(NC(=O)c4ccc(C(=O)Nc5ccc6c(O)c(N=Nc7ccc(CCC(=O)O)cc7)c(S(=O)(=O)O)cc6c5)cc4)ccc3c2O)cc1` [Compound 164] the remaining activity at 10 µM [3] was 0.15%.

Work on `O=C(O)c1ccc(N=Nc2c(S(=O)(=O)O)cc3cc(NC(=O)c4cc(=O)cc(C(=O)Nc5ccc6c(O)c(N=Nc7ccc(C(=O)O)cc7)c(S(=O)(=O)O)cc6c5)o4)ccc3c2O)cc1` [Compound 132] yielded a remaining activity at 10 µM [3] of 0.19%.

Work on `O=C(Nc1ccc2c(O)cc(S(=O)(=O)O)cc2c1)Nc1ccc2cc(S(=O)(=O)O)cc(S(=O)(=O)O)c2c1` [Compound 8] yielded a remaining activity at 10 µM [3] of 83%.

With `CCOC(=O)c1ccc(NC(=O)Nc2ccc3c(O)cc(S(=O)(=O)O)cc3c2)cc1` [Compound 28] the “% RT activity remaining at 10 μM” value ([3]; 3 min, 10 µM) was 100%.

`COc1cc(C(=O)O)ccc1N=Nc1c(S(=O)(=O)O)cc2cc(NC(=O)c3ccc(C(=O)Nc4ccc5c(O)c(N=Nc6ccc(C(=O)O)cc6OC)c(S(=O)(=O)O)cc5c4)cc3)ccc2c1O` [Compound 167] showed a remaining activity at 10 µM [3] of 0.26%.

Work on `Cc1cc(C(=O)O)ccc1N=Nc1c(S(=O)(=O)O)cc2cc(NC(=O)c3cccc(C(=O)Nc4ccc5c(O)c(N=Nc6ccc(C(=O)O)cc6C)c(S(=O)(=O)O)cc5c4)n3)ccc2c1O` [Compound 130] yielded a remaining activity at 10 µM [3] of 0.35%.

`O=C(O)CCc1ccc(N=Nc2c(S(=O)(=O)O)cc3cc(NC(=O)c4cc(=O)cc(C(=O)Nc5ccc6c(O)c(N=Nc7ccc(CCC(=O)O)cc7)c(S(=O)(=O)O)cc6c5)o4)ccc3c2O)cc1` [Compound 134] was tested, and the remaining activity at 10 µM [3] was 0.25%.

In the case of `O=C(O)Cc1ccc(N=Nc2c(S(=O)(=O)O)cc3cc(NC(=O)c4cc(=O)cc(C(=O)Nc5ccc6c(O)c(N=Nc7ccc(CC(=O)O)cc7)c(S(=O)(=O)O)cc6c5)o4)ccc3c2O)cc1` [Compound 133], the remaining activity at 10 µM [3] is reported as 0.4%.

`COc1cc(C(=O)O)c(N=Nc2c(S(=O)(=O)O)cc3cc(NC(=O)C(=O)Nc4ccc5c(O)c(N=Nc6c(C(=O)O)cc(OC)c(OC)c6OC)c(S(=O)(=O)O)cc5c4)ccc3c2O)c(OC)c1OC` [Compound 102] showed an IC50 (HIV integrase [1]) of 600 nM and an IC50 (HIV integrase [2]) of 700 nM.

In the case of `O=C(Nc1ccc2cc(S(=O)(=O)O)cc(O)c2c1)Nc1ccc2cc(S(=O)(=O)O)cc(O)c2c1` [Compound 77], the remaining activity at 10 µM [3] is reported as 84%.

`O=C(O)c1ccc(N=Nc2c(S(=O)(=O)O)cc3cc(NC(=O)c4cccc(C(=O)Nc5ccc6c(O)c(N=Nc7ccc(C(=O)O)cc7)c(S(=O)(=O)O)cc6c5)n4)ccc3c2O)cc1` [Compound 118] was tested, and the remaining activity at 10 µM [3] was 0.25%.

In the case of `O=C(O)c1cccc(N=Nc2c(S(=O)(=O)O)cc3cc(NC(=O)c4cc(O)cc(C(=O)Nc5ccc6c(O)c(N=Nc7cccc(C(=O)O)c7)c(S(=O)(=O)O)cc6c5)n4)ccc3c2O)c1` [Compound 150], the remaining activity at 10 µM [3] is reported as 0.6%.

In the case of `CC(=O)Nc1ccc(N=Nc2c(S(=O)(=O)O)cc3cc(NC(=O)Nc4ccc5c(O)c(N=Nc6ccc(NC(C)=O)cc6)c(S(=O)(=O)O)cc5c4)ccc3c2O)cc1` [Compound 72], the IC50 (HIV integrase [1]) is reported as 1000 nM and the IC50 (HIV integrase [2]) is reported as 500 nM.

In the case of `COc1ccc(N=Nc2c(S(=O)(=O)O)cc3cc(NC(=O)Nc4ccc5c(O)c(N=Nc6ccc(OC)cc6)c(S(=O)(=O)O)cc5c4)ccc3c2O)cc1` [Compound 73], the IC50 (HIV integrase [1]) is reported as 1000 nM and the IC50 (HIV integrase [2]) is reported as 600 nM.

`O=C(Nc1ccc2c(O)cccc2c1)Nc1ccc2c(O)cc(S(=O)(=O)O)cc2c1` [Compound 6] was tested, and the remaining activity at 10 µM [3] was 84%.

With `CCOC(=O)c1c[nH]nc1N=Nc1c(S(=O)(=O)O)cc2cc(NC(=O)Nc3ccc4c(O)c(N=Nc5n[nH]cc5C(=O)OCC)c(S(=O)(=O)O)cc4c3)ccc2c1O` [Compound 64] the IC50 (HIV integrase [1]) was over 3000 nM and the IC50 (HIV integrase [2]) was over 3000 nM.
